System: NRK cells
Test: Toxicity by trypan blue exclusion and replating of detached cells
Assay type: cell-based, rat
Procedure: The activities of the crude and high performance liquid chromatrography (HPLC)-purified GRGDSP peptide were similar. […] To study the correlation of detaching capacity with the cell attachment-promoting and attachment-inhibiting effects established previously (Pierschbacher and Ruoslahti, 1984a; 1984b), each of the following listed peptides was tested for its ability to detach cells: […]

N=C(N)NCCC[C@H](NC(=O)CN)C(=O)NCC(=O)N[C@@H](CC(=O)O)C(=O)N[C@@H](CO)C(=O)N1CCC[C@H]1C(=O)O [GRGDSP, GLY-ARG-GLY-ASP-SER-PRO]
replating of aggregates washed free of the peptide (NRK aggregates): attached to the dish | cell death by trypan blue exclusion (detached NRK cells): no cell death could be detected
